PMC3537624, “Functional Characterization of the Short Neuropeptide F Receptor in the Desert Locust, Schistocerca gregaria” (PLoS ONE, 2013)
Entries after “also recorded” stand apart in the source; their conditions may differ. Where a SMILES comes first, the peptide text is derived from it.

Key:
[1] = test system: Schgr-sNPFR; assay: Calcium assay, aequorin bioluminescence in CHO-WTA11-Schgr-sNPFR cells (promiscuous Gα16); format: cell-based, Schistocerca gregaria; details: for EC50: CHO-WTA11 cells with Gα16, aequorin/coelenterazine h luminescence, 30 s read, ± (95% confidence interval), three independent measurements in duplicate
Description: (§1) Three cell lines were used in this study. General receptor studies were performed in Chinese Hamster Ovary (CHO)-WTA11 cells, a clone of CHO cells stably coexpressing the promiscuous Gα16 and apoaequorin. To determine the mode of downstream signalling, we used either CHO-PAM28 cells, a clone of CHO cells expressing apoaequorin but not the promiscuous Gα16, or Human Embryonic Kidney (HEK) 293T cells, expressing neither Gα16 nor apoaequorin. All cell lines used in this study were provided by Prof. Dr. M. Parmentier and Dr. M. Dethreux (Université Libre de Bruxelles) and Euroscreen S.A., Belgium.
(§2) The cells were cultured in monolayer, in Dulbecco’s Modified Eagle Medium Nutrient Mixture F12-Ham (DMEM/F12, Invitrogen) containing 10% fetal calf serum (Invitrogen), 100 IU/ml penicillin/streptomycin (Invitrogen). For the CHO-WTA11 cells, 250 µg/ml Zeocin™ (Invitrogen) was added to the medium, while to the medium of CHO-PAM28 cells, 5 µg/ml Puromycin (Invitrogen) was added. The cells were grown at 37°C, with a constant supply of 5% CO2 and split every 3 days.
Transfections with either Schgr-sNPFR/pcDNA3.1D or empty pcDNA3.1D vector were performed in T75 flasks at ca. 60% confluency. […]
In the calcium-assays, CHO-WTA11 or CHO-PAM28 cells expressing the Schgr-sNPFR were detached two days after transfection, counted using the NucleoCounter® NC-100™ (Chemometec), and resuspended in DMEM/BSA (DMEM/F12, 10 mM HEPES, 0.1% bovine serum albumin) at a concentration of 5×10^5 cells/ml. […]
After incubation, the cell suspension was injected in wells containing a peptide solution, dissolved in 50 µl BSA medium. […] Light emission was monitored using a Mithras LB 940 Microplate Reader (Berthold technologies).
(§3) Data generated in these experiments were analysed using GraphPad Prism 5 (GraphPad Software).
As putative ligands for the cloned Schistocerca gregaria sNPF receptor, Schgr-sNPF (SNRSPSLRLRFa), Schgr-sNPF^4−11 (SPSLRLRFa) and Schgr-trNPF (YSQVARPRFa) were tested. […] For each of these peptides, the dose-dependent activation of the Schgr-sNPFR was studied in CHO-WTA11 cells and EC50 values were calculated.

[2] = test system: Schgr-sNPFR; assay: Calcium assay, aequorin bioluminescence in CHO-PAM28-Schgr-sNPFR cells (no Gα16); format: cell-based, Schistocerca gregaria; details: for EC50: CHO-PAM28 cells without Gα16, aequorin bioluminescence, three independent measurements in duplicate; for maximum response (aequorin bioluminescence): Schgr-sNPF and Schgr-sNPF^4−11 compared with each other
Description: as §1, §2
(§4) Transfections with either Schgr-sNPFR/pcDNA3.1D or empty pcDNA3.1D vector were performed in T75 flasks at ca. 60% confluency. Transfection reagent was prepared by combining 2,5 ml of DMEM/F12, 5 µg of the plasmid DNA and 12.5 µl of PLUS™ Reagent (Invitrogen). After storing the medium at room temperature for 5 minutes, 30 µl Lipofectamine™ LTX (Invitrogen) was added and the transfection medium was added dropwise into 3 ml of culture medium after 30 minutes incubation at room temperature. HEK 293T cells were cotransfected with a reporter construct, consisting of a luciferase gene situated downstream of a cyclic AMP (cAMP) response element (CRE) and promoter.
In the calcium-assays, CHO-WTA11 or CHO-PAM28 cells expressing the Schgr-sNPFR were detached two days after transfection, counted using the NucleoCounter® NC-100™ (Chemometec), and resuspended in DMEM/BSA (DMEM/F12, 10 mM HEPES, 0.1% bovine serum albumin) at a concentration of 5×10^5 cells/ml. Cells where then shielded from light and incubated for 4 h with 5 µM coelenterazine h (Invitrogen), allowing the aequorin holoenzyme to be reconstituted.
After incubation, the cell suspension was injected in wells containing a peptide solution, dissolved in 50 µl BSA medium. After 30 s, 50 µl of 0.1% Triton X-100 was injected, lysing the cells and thus serving as an internal reference. Wells containing no peptide but DMEM/BSA were used as a negative control while wells containing 1 µM ATP were used as a positive control. Light emission was monitored using a Mithras LB 940 Microplate Reader (Berthold technologies).
as §3
These two peptides were then further studied with respect to their mode of intracellular signalling. Cell based assays were performed using a CHO-PAM28 cell line, expressing apoaequorin, allowing the detection of increases in the intracellular concentration of calcium ions. […] The calculated EC50 values were both in the nanomolar range.

[3] = test system: Schgr-sNPFR; assay: cAMP assay, CRE-luciferase bioluminescence in HEK-293T-Schgr-sNPFR cells; format: cell-based, Schistocerca gregaria; details: HEK 293T cells; for IC50: 200 µM IBMX + NKH 477, 3 h at 37°C, three independent measurements in duplicate, read-out: IC50 (inhibition of CRE-luciferase reporter expression); for inhibition of the reporter expression (result in words): CRE-luciferase, 200 µM IBMX + NKH 477
Description: as §1, §2, §4
HEK 293T cells, cotransfected with the Schgr-sNPFR/pcDNA3.1 vector and the CRE-luciferase construct, were detached two days after transfection, centrifuged and resuspended to a concentration of 10^6 cells/ml in DMEM/F12 containing 200 µM 3-isobutyl-1-methylxanthine (IBMX; Sigma-Aldrich). Fifty µl of this suspension was introduced into in each well of a 96-well-plate. When studying stimulatory effects, peptides were dissolved in DMEM/F12 containing 200 µM IBMX. When studying inhibitory effects, these peptides were dissoved in DMEM/F12 supplemented with 200 µM IBMX and 20 µM NKH 477 (a water-soluble analogue of forskolin; Sigma-Aldrich). […] Light emission, resulting from the luciferase activity, was measured for 5 s/well using the Mithras LB 940 Microplate Reader.
as §3
The possible effect of receptor activation on intracellular cyclic AMP (cAMP) production was analysed in HEK 293T cells that were cotransfected with a CRE-luciferase reporter construct.

[4] = test system: adult locusts; assay: Peptide injection feeding assay (food uptake); format: in vivo, Schistocerca gregaria; details: for reduction of food uptake: 2 µl of 100 µg/ml injected dorsally, cabbage for one hour, vs saline, n = 20; for effect on food uptake (result in words): normalized to body mass, mean, n = 20, ANOVA with Tukey
Description: The desert locusts used in this study were all gregarious adult animals. They were reared under crowded conditions at a constant temperature (32±1°C) and photoperiod (14 h). The locusts were kept at high density (>200 locusts per cage) and fed daily with cabbage and dry oat flakes. In an effort to normalize feeding responses, locusts used in feeding experiments were placed in separate cages and placed on a controlled dietary regimen one week prior to the assay. Locusts were fed for two hours each day (9 h–10 h, 16 h–17 h).
At 9 AM, 2 µl of a 100 µg/ml peptide solution (experimental condition) or saline solution (negative control) was injected dorsally between the first and second abdominal segments using a 710 RN injector (Hamilton). Pieces of cabbage were weighed in advance and presented to the locusts for one hour, after which all animals had stopped feeding. In parallel, similar pieces of cabbage were put in empty cages during the period of the experiment. The relative weight loss of these pieces was used to estimate the effect of evaporation All cabbage leafs were weighed after the feeding assay, total food uptake was calculated and corrected for the weight that was lost by evaporation. The results were analysed using GraphPad Prism 5 (GraphPad Software).

Q: With “SNRSPSLRLRFa [Schgr-sNPF, Schistocerca gregaria short neuropeptide F, […]a]” as the molecule, how does the EC50 [1] read?
A: Its EC50 is 2.05 ± 0.63 nM.

Q: And the “increase of aequorin bioluminescence” value ([2]; CHO-PAM28 cells)?
A: Its value is “dose-dependent increase of aequorin bioluminescence”.

Q: And the EC50 [2]?
A: The EC50 was 3.28 ± 2.2 nM.

Q: What about the “maximum response (aequorin bioluminescence)” value ([2]; CHO-PAM28 cells) of the same molecule?
A: Its value is “markedly lower than that of Schgr-sNPF^4−11”.

Q: And the “agonist character with respect to calcium response” value ([2]; CHO-PAM28 cells, maximum response lower than that of Schgr-sNPF^4−11)?
A: Its value is “partial agonist”.

Q: What about the IC50 [3] of the same molecule?
A: Its IC50 is 0.0763 ± 0.0261 nM.

Q: And the “inhibition of the reporter expression (result in words)” value [3]?
A: Its value is “highly effective”.

Q: And the “reduction of food uptake” value [4]?
A: Its value is 30%.

Q: And the “effect on food uptake (result in words)” value ([4]; ** p<0.01, *** p<0.001)?
A: Its value is “significant decrease of food uptake”.

Q: What about the “effect on food uptake (result in words)” value ([4]; ** p<0.01, *** p<0.001, listed as sNPF) of the same molecule?
A: The value was “significant decrease in food uptake”.

Q: Which “activation of the receptor (result in words)” value ([1]; CHO-WTA11 cells, aequorin bioluminescence) does the source give for “YSQVARPRFa [Schgr-trNPF, truncated form of Schgr-neuropeptide F, …a]” here?
A: Its value is “No dose-dependent response was observed; also recorded: not responsive”.

Q: Which EC50 [1] does the source give for `CC(C)C[C@H](NC(=O)[C@H](CCCNC(=N)N)NC(=O)[C@H](CC(C)C)NC(=O)[C@H](CO)NC(=O)[C@@H]1CCCN1C(=O)[C@@H](N)CO)C(=O)N[C@@H](CCCNC(=N)N)C(=O)N[C@@H](Cc1ccccc1)C(N)=O` [Schgr-sNPF^4−11] (H-SPSLRLRF-NH2) here?
A: Its EC50 is 5.56 ± 1.8 nM.

Q: And the “increase of aequorin bioluminescence” value ([2]; CHO-PAM28 cells)?
A: The value was “dose-dependent increase of aequorin bioluminescence”.

Q: And the EC50 [2]?
A: The EC50 was 32.2 ± 18.2 nM.

Q: What about the “maximum response (aequorin bioluminescence)” value ([2]; CHO-PAM28 cells) of the same molecule?
A: The value was “markedly higher than those obtained with Schgr-sNPF”.

Q: What about the IC50 [3] of the same molecule?
A: The IC50 was 0.0955 ± 0.0323 nM.

Q: And the “inhibition of the reporter expression (result in words)” value [3]?
A: Its value is “highly effective”.

Q: What about the “reduction of food uptake” value [4] of the same molecule?
A: The value was 37%.

Q: What about the “effect on food uptake (result in words)” value ([4]; ** p<0.01, *** p<0.001) of the same molecule?
A: The value was “significant decrease of food uptake”.

Q: What about the “effect on food uptake (result in words)” value ([4]; ** p<0.01, *** p<0.001, listed as sNPF^4−11) of the same molecule?
A: The value was “significant decrease in food uptake”.
